In paper PMC5485613, “A novel TRPM8 agonist relieves dry eye discomfort” (BMC Ophthalmology, 2017):

Experiments:
[1] = biological target: T1, human TRPM8 (Homo sapiens, UniProt Q7Z2W7); assay: TRPM8 calcium assay (Fluo-8, FLIPR) in transfected CHO cells; assay type: cell-based; conditions: x Menthol
T1 construct: host or cells: CHO cells, stably transfected
Procedure: Compounds were tested on Chinese Hamster Ovary (CHO) cells stably transfected with human TRPM8 cDNAs using a Fluo-8 calcium kit and a Fluorescence Imaging Plate Reader ([…]™) instrument. […] Solutions were prepared by diluting stock solutions in a HEPES-buffered physiological saline (HBPS) solution. Test compound and control formulations were loaded in polypropylene or glass-lined 384-well plates, and placed into the FLIPR instrument (Molecular Devices Corporation, Union City, CA, USA). Each was tested at 8 concentrations with n = 4 replicates per determination. […] For […]™ assay, cells were plated in 384-well black wall, flat clear-bottom microtiter plates (Type: BD Biocoat Poly-D-Lysine Multiwell Cell Culture Plate) at approximately 30,000 cells per well. Cells were incubated at 37 °C overnight to reach a near confluent monolayer appropriate for use in a fluorescence assay. The test procedure was to remove the growth media and to add 40 μL of HBPS containing Fluo-8 for 30 min at 37 °C. 10 μL of test compound, vehicle, or control solutions in HBPS were added to each well and read for 4 min. Concentration-response data were analyzed via the FLIPR Control software that is supplied with the FLIPR System (MDS-AT) and fitted to a Hill equation.

[2] = biological target: T2, human TRPA1 (Homo sapiens, UniProt O75762); assay: TRPA1 calcium imaging (Fura-2) in transfected KNRK cells; assay type: cell-based; conditions: 10 μM
T2 construct: expressed in transfected cells; host or cells: KNRK cells (rat kidney), transiently transfected
T2 sequence (O75762 whole entry): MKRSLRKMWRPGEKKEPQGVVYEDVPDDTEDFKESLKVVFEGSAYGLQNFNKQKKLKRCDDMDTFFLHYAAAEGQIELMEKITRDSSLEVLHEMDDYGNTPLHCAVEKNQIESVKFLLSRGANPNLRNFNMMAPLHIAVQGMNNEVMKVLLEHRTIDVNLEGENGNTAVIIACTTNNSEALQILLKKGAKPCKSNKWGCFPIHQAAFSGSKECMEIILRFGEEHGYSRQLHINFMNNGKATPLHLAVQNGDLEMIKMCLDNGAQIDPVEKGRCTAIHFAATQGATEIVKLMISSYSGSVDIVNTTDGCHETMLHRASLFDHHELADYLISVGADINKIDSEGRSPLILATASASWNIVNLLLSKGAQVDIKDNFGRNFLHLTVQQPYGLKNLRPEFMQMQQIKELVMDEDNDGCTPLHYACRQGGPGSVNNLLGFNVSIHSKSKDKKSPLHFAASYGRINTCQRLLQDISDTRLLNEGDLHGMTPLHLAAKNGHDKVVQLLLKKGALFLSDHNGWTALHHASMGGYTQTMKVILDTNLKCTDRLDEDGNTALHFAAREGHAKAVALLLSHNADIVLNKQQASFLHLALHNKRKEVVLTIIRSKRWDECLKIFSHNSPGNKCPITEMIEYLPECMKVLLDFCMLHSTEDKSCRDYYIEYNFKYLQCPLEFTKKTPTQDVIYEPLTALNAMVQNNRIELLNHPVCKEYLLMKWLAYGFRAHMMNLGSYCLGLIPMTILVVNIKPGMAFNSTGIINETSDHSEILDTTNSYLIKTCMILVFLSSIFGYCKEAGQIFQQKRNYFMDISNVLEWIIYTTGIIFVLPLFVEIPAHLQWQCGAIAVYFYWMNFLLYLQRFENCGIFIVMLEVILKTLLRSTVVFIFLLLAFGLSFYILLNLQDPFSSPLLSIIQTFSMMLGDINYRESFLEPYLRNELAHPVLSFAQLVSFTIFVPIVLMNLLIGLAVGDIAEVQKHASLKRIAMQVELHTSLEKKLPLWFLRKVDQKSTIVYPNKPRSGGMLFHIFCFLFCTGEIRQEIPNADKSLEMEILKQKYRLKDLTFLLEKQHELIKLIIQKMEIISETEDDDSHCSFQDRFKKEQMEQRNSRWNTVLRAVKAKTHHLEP
Procedure: To further examine the specificity of C3, tests were conducted on TRPV1 channels and TRPA1 channels expressed in Kirsten murine sarcoma virus transformed rat kidney (KNRK) cells. KNRK cells were cultured as a monolayer and maintained in Dulbeccos’s Modified Eagles’s Medium (Life Technologies), supplemented with 10% fetal bovine serum (Life Technologies), 100 units/mL penicillin and 100 μg/mL streptomycin, in an incubator of 5% CO2 at 37 °C. After suspension, the cells were coated on cover slips for 12 h, then transiently transfected with cDNA (pc3.1 DNA) for TRPV1 or TRPA1 with Lipofectamine 2000 (Invitrogen) for 24 h, and loaded with Fura-2 AM™ (Molecular Probes) for 40 min at 37 °C. After washing and recovery, KNRK cells were imaged at 340 and 380 nm excitation to detect free calcium influx. An increase of 50% of the 340/380 ratio was considered as the response threshold which were measured under masked conditions for plasmids. Compounds were applied to the bath and calcium response was acquired by an inverted Nikon fluorescence microscope with a CoolSnap HQ2 CCD camera (Photometrics, Tucson, AZ). Data were quantified offline with the Nikon-NIS program.

[3] = tested on: rats; assay: Shaking activity (wet dog shakes) after intravenous, perioral and topical administration; assay type: in vivo, rat
Procedure: Male rats weighing 220–260 g were anesthetized with sodium pentobarbital, 55 mg/kg intraperitoneal, and after the loss of the righting reflex, animals were placed on a table and body temperature was recorded. The femoral vein was cannulated with polyethylene-20 tubing connected to a 1 mL syringe. For the intravenous and perioral routes, 0.1 mL of solution was given per 100 g body weight at a dose of 2 mg/kg or 20 mg/kg, respectively. For topical administration, the abdominal skin was shaved and 20 μL of the pure Dapa was applied with a micropipette on a ~ 1 cm diameter circle of skin, enclosed with a ring of cream (Baby cream “NevskayakosmetikaDetskyi” NevskayaKosmetika Inc., Saint-Petersburg 192,029). Animals were observed and shaking frequency counted for 15, 40 min and 1 h after intravenous, perioral, and topical applications, respectively. There were n = 3 to 6 rats per test substance. For the intravenous route, two trials were conducted in the same animal with a 10 to 15 min interval between doses. The shaking frequency shown in the graphs is for the second trial. Shaking behavior are rapid alternating contractions of the supination and pronation muscles about the spinal axis, and can be readily observed in the readily observed in the unanesthetized or anesthetized state and counted (Additional file 2: Movie S1). The pattern of response after intravenous, perioral, and topical delivery provides information on the ability of the molecule to cross membrane barriers. Experiments on rats were ended by euthanasia with intraperitoneal injection of sodium pentobarbital 150 mg/kg.
Supplementary file 12886_2017_495_MOESM2_ESM.mp4: Additional file 2: Movie S1. Shaking response to a 1-diisopropylphosphorylnonane. Video recording 20 to 40 min period after oral dosing with C3 at 50 mg/kg. C3 was dissolved in 5% ethanol-95% R-1,2-propanediol. The total observation period was 120 min. […] (MP4 3699 kb)

[4] = tested on: dry eye mice; assay: Mouse dry eye model (extraorbital lacrimal gland removal): tear volume, blinking, corneal abrasion; assay type: in vivo; conditions: for Tear secretion (phenol-red thread wetting): mean ± SEM
Procedure: C57BL/6 J wild-type mice were purchased from Jackson Laboratory (Stock No. 000664). Adult male mice were anesthetized with xylazine ([…]) and ketamine ([…]) mixture and incisions of 5 mm were made in the skin between the eye and the ear, both extraorbital lacrimal glands were gently isolated by forceps and removed. As mouse has three pairs of lacrimal glands, removing the extraorbital ones will induce partially tear secretion deficiency, but still have other tear sources to be triggered. Sham mice received the same procedure without gland removal. Skin was sutured with 6–0 black monofilament nylon (Ethilon from Ethicon, Inc.). All mice received antibiotics (100 μL Enroflox™, intramuscular daily) and topical analgesia (2% lidocaine gel) for 2 days postoperative. Behavioral assays were done between 2 and 4 weeks after the surgery.
Tear volume was measured with phenol-red cotton threads (Zone-Quick; Showa Yakuhin Kako CO., Ltd., Tokyo, Japan) as described. The threads were held with forceps and applied to the lateral canthus for 30 s. Immediately afterwards the wetting of the thread was read in mm under a dissection microscope. Corneal abrasion was assessed under cobalt blue light after application of 0.5 μl of 0.25% fluorescein sodium (Bausch & Lomb Inc. Tampa, FL 33637). Grades of abrasion were classified with a grading system that is based on area of corneal staining. Grouping was blinded to the observers. Results were grouped according to the treatments after analysis.
To determine if C3 affected tear secretion, we tested its effect in mice. Mice were held firmly and 2 μL of C3 or vehicle was wiped gently on eyelid by pipette from nasal side to bitemporal. Tear secretion was increased by C3 in sham-operated animals and in mice in which the extraorbital lacrimal glands were surgically removed (Fig. 4a). […] The positive results in an animal model of DED justified further studies in human subjects.

[5] = sham group or dry eye mouse model, single administration

T1 sequence (Q7Z2W7 whole entry): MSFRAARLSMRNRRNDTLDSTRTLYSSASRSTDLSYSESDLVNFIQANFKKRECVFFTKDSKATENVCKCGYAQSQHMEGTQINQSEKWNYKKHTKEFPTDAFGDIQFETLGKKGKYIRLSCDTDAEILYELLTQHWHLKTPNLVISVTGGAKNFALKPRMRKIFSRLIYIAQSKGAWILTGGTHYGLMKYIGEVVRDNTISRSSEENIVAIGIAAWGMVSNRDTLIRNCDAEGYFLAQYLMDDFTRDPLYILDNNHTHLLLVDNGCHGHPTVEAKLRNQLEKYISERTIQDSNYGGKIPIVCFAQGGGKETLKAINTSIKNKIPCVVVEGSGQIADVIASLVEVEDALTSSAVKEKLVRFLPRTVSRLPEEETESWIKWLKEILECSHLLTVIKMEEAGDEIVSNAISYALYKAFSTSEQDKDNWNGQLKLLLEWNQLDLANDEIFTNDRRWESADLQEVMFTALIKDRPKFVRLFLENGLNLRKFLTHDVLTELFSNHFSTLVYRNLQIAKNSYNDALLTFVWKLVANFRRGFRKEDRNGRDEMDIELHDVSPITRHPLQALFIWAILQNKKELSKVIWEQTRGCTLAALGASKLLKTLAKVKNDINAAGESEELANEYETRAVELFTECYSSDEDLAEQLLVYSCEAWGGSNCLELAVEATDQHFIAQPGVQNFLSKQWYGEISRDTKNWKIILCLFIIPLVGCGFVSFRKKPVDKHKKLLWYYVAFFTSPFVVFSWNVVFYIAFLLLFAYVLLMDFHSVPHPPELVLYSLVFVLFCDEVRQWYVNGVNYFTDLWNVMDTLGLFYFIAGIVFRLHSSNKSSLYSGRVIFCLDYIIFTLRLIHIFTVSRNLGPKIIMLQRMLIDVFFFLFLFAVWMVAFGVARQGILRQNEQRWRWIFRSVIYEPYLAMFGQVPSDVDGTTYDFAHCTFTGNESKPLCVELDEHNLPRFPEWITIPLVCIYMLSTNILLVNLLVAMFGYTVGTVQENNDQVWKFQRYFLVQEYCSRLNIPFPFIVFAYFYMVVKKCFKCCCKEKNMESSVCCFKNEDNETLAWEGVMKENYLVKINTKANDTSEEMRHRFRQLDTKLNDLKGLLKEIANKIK

CCCCCCCCCP(=O)(C(C)C)C(C)C [C3, 1-diisopropylphosphorylnonane]
relative potency to l-menthol (menthol = 1) [1]: 4.0
activation of TRPA1 (calcium response) [2]: inactive
Shaking [15 min] ([3]; intravenous 2 mg/kg, anesthetized rats): active
body shakes after oral dosing ([3]; oral 20 mg/kg, anesthetized and unanesthetized state): no body shakes
total number of shaking in the most active rat ([3]; oral 50 mg/kg in 5% ethanol-95% R-1,2-propanediol, observation 120 min): 56 shakes
Shaking [40 min] ([3]; perioral 20 mg/kg, pentobarbital-anesthetized rats): not active
Tear secretion (phenol-red thread wetting) ([4]; dry eye mice, n = 6, 2 μL wiped on eyelid): 1.3 ± 0.4 mm
Spontaneous blinking [4, 5]: not affected
corneal abrasion [4, 5]: not affected
Tear secretion (phenol-red thread wetting) ([4]; sham group, n = 5, 2 μL wiped on eyelid): 5.4 ± 0.5 mm
